Data from article PMC9454848, “BMS-986158, a Small Molecule Inhibitor of the Bromodomain and Extraterminal Domain Proteins, in Patients with Selected Advanced Solid Tumors: Results from a Phase 1/2a Trial” (Cancers, 2022).

Legend:
[1] = system: BET-regulated genes; experiment: Transcriptional changes in matched pre- and on-treatment samples; assay type: in vivo, human; conditions: of >18,000 genes measured; Benjamini–Hochberg–adjusted p < 0.05; 41 patients
Experimental: Summary changes from baseline in the expression of BET-regulated genes were assessed in tumor tissues and blood collected at baseline and multiple on-treatment time points after BMS-986158 administration following the 3 dosing schedules. The study also assessed summary percent changes from baseline in expression of BET-regulated genes in peripheral blood and tumors (such as HEXIM1 and C-MYC). Tissue and peripheral blood samples (at baseline and on treatment) were collected for genomic, transcriptomic, and epigenetic analyses (by DNA or mRNA) to assess pharmacodynamic changes in BET-regulated genes. These samples were analyzed using whole-exome sequencing, real-time quantitative polymerase chain reaction, and RNA-sequencing methods.
All treated patients with available biomarker measurements at baseline and ≥1 time point were included in the biomarker analyses. Blood and tumor tissue samples were collected at baseline, during treatment, and at end of treatment for biomarker analysis. Markers of selected BET-regulated genes (e.g., HEXIM1) were analyzed with summary statistics for percent changes in expression from available matched pre- and on-treatment samples over time relative to baseline. Statistically significant changes in gene expression were determined using the Benjamini–Hochberg procedure to calculate an adjusted p value with an α level of 0.05.

[2] = system: patient-derived xenograft models; design: method as in PMID 34543572; conditions: mouse, low doses; 9 of 19 models; cited from earlier work

Cc1nnn(C)c1-c1cnc2c3ccc(C(C)(C)O)cc3n([C@H](c3ccccc3)C3CCOCC3)c2c1 [BMS-986158]
Genes with significant changes in expression [1]: 4500 | Patient-derived xenograft models with antitumor activity [2]: 47%
